19 molecules from BindingDB's records for doi:10.1021/bi8010362 (Kyoto University, 2008) can be followed below.

A value given as a limit tells only on which side of the number the result lay.

NADH-ubiquinone oxidoreductase chain 1, sequence (P03887 whole entry): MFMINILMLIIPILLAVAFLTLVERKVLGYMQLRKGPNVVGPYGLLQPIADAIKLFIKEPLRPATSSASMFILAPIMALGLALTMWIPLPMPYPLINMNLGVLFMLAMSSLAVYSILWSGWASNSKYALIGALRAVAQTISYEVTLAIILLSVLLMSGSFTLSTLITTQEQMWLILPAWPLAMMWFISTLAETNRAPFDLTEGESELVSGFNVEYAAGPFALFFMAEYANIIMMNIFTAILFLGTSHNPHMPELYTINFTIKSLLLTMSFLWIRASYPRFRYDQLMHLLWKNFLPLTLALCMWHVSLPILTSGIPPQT

The experiment addresses NADH-ubiquinone oxidoreductase chain 1 (Bos taurus, UniProt P03887). In words: Inhibition Assay. An excerpt:
Inhibition assay using NADH-ubiquinone oxidoreductase (complex I).
As for `O[C@H](CCCCCCCc1ccccc1)CN1CCN(C[C@H](O)CCCCCCCc2ccccc2)CC1` [Piperazine derivative, 10], it took 1.2 nM to reach half-maximal inhibition (IC50).
The figure for `CN(C[C@H](O)CCCCCCCc1ccccc1)[C@H]1CCCC[C@@H]1N(C)C[C@H](O)CCCCCCCc1ccccc1` [Piperazine derivative, 15] is 670 nM.
`CCCCCC(O)CN1CCN(CC(O)CCCCC)CC1` (centres undefined) [Piperazine derivative, 4]: the IC50 (as a rule, the concentration that gives 50% inhibition) is more than 22000 nM.
The figure for `C[N+]1(C[C@H](O)CCCCCc2ccccc2)CC[N+](C)(C[C@H](O)CCCCCc2ccccc2)CC1` (some centres undefined) [Piperazine derivative, 23] is 4700 nM; for `O[C@H](CCCCCCc1ccccc1)CN1CCN(C[C@H](O)CCCCCCc2ccccc2)CC1` [Piperazine derivative, 9] it is 1.7 nM.
The molecule `O[C@H](CCCCCCCCCc1ccccc1)CN1CCN(C[C@H](O)CCCCCCCCCc2ccccc2)CC1` [Piperazine derivative, 11] showed an IC50 of 5.9 nM.
For `CCCCCCCCCCCCCCC(O)CN1CCN(CC(O)CCCCCC)CC1` (centres undefined) [Piperazine derivative, 6], it took 26 nM to reach half-maximal inhibition (IC50).
In turn, `O[C@H](CCCCCCCc1ccccc1)CN1C[C@H]2C[C@@H]1CN2C[C@H](O)CCCCCCCc1ccccc1` [Piperazine derivative, 14] came in with an IC50 of 2.8 nM.
With `O[C@H](CCCCCc1ccccc1)CN1CCN(C[C@H](O)CCCCCc2ccccc2)CC1` [Piperazine derivative, 8], the IC50 was 12 nM.
Turning to `O[C@H](CCCCCCCc1ccccc1)CN1CCCN(C[C@H](O)CCCCCCCc2ccccc2)CC1` [Piperazine derivative, 13], the IC50 is 1.7 nM.
Consider `O[C@@H](CCCCCCc1ccccc1)CN1CCN(C[C@@H](O)CCCCCCc2ccccc2)CC1` [Piperazine derivative, 12], for which 2.3 nM corresponded to half-maximal inhibition (IC50).
Regarding `c1ccc(CCCCCCCN2CCN(CCCCCCCc3ccccc3)CC2)cc1` [Piperazine derivative, 18], half-maximal inhibition (IC50) was put at 12 nM.
For `N#[N+]Nc1c(F)c(F)c(COCCCCC[C@@H](O)CN2CCN(C[C@H](O)CCCCCOc3ccc(I)cc3)CC2)c(F)c1F` [Piperazine derivative, 24], 1 nM corresponded to half-maximal inhibition (IC50).
The figure for `c1ccc(CCCCCCCCN2CCN(CCCCCCCCc3ccccc3)CC2)cc1` [Piperazine derivative, 19] is 2.2 nM.
Turning to `c1ccc(CCCCN2CCN(CCCCc3ccccc3)CC2)cc1` [Piperazine derivative, 21], the IC50 is 1300 nM.
The figure for `c1ccc(CCCCCCCCCN2CCN(CCCCCCCCCc3ccccc3)CC2)cc1` [Piperazine derivative, 20] is 3.6 nM; for `CCCCCCCCCCC(O)CN1CCN(CC(O)CCCCCCCCCC)CC1` (centres undefined) [Piperazine derivative, 5] it is 2.6 nM.
The figure for `C[N+]1(C[C@H](O)CCCCCc2ccccc2)CCN(C[C@H](O)CCCCCc2ccccc2)CC1` [Piperazine derivative, 22] is 1100 nM; for `CCCCCCCCCCCCCCCCC(O)CN1CCN(CC(O)CCCC)CC1` (centres undefined) [Piperazine derivative, 7] it is 110 nM.
